Counter-ions that a name gives are not always drawn.
Target: PHD2 (Homo sapiens, UniProt Q9GZT9)
Test: PHD2 / HIF-1α peptide hydroxylation assay with time resolved fluorescence readout (PHD2 binding activity)
Format: biochemical
Conditions: FLAG-tagged full length PHD2; 0.2 μM 2-oxoglutarate, 0.5 μM HIF-1α peptide; read-out: PHD2 Activity (PHD2 binding activity expressed as IC50)
Experimental: After a 30 min preincubation at room temperature, the enzymatic reactions were initiated by the addition of 4 μL of substrates (final concentrations of 0.2 μM 2-oxoglutarate and 0.5 μM HIF-1α peptide biotinyl-DLDLEMLAPYIPMDDDFQL). After 2 hr at room temperature, the reactions were terminated and signals were developed by the addition of a 25 μL quench/detection mix to a final concentration of 1 mM ortho-phenanthroline, 0.1 mM EDTA, 0.5 nM anti-(His)6 LANCE reagent (Perkin-Elmer Life Sciences), 100 nM AF647-labeled streptavidin (Invitrogen), and 2 μg/ml (His)6-VHL complex (S. Tan(2001) Protein Expr. Purif 21, 224-234). The ratio of time resolved fluorescence signals at 665 and 620 nm was determined, and percent inhibition was calculated relative to an uninhibited control sample run in parallel.

PHD2, sequence (Q9GZT9 whole entry): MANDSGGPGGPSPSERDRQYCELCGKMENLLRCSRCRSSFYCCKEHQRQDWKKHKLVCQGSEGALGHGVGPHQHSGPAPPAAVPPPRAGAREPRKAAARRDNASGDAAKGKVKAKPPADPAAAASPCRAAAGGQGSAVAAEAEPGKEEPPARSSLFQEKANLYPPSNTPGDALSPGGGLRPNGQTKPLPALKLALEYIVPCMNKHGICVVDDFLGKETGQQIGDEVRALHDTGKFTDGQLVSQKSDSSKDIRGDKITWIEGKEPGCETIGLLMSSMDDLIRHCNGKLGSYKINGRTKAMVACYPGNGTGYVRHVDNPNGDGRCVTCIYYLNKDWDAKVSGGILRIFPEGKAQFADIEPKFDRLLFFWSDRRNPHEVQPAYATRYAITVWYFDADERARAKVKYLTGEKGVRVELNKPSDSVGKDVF

| Structure (SMILES) | IC50 [µM] |
| --- | --- |
| C=CCCC(=O)N1Cc2c(O)c(C(=O)NCC(=O)O)c(=O)n(Cc3ccc(-c4ccccc4)cc3)c2C1 [Example 2, N-{[1-(biphenyl-4-ylmethyl)-4-hydroxy-2-oxo-6-pent-4-enoyl-2,5,6,7-tetrahydro-1H-pyrrolo[3,4-b]pyridin-3-yl]carbonyl}glycine] | < 0.01 |
| O=C(O)CNC(=O)c1c(O)c2c(n(Cc3cccc(-c4ccncc4)c3)c1=O)CN(C(=O)c1cscn1)C2 [Example 51, N-{[4-hydroxy-2-oxo-1-(3-pyridin-4-ylbenzyl)-6-(1,3-thiazol-3-ium-4-ylcarbonyl)-2,5,6,7-tetrahydro-1H-pyrrolo[3,4-b]pyridin-3-yl]carbonyl}glycine trifluoroacetate] | < 0.01 |
